Molecules are shown by their SMILES.

METTL3/METTL14, sequence (Q86U44 whole entry, species assumed): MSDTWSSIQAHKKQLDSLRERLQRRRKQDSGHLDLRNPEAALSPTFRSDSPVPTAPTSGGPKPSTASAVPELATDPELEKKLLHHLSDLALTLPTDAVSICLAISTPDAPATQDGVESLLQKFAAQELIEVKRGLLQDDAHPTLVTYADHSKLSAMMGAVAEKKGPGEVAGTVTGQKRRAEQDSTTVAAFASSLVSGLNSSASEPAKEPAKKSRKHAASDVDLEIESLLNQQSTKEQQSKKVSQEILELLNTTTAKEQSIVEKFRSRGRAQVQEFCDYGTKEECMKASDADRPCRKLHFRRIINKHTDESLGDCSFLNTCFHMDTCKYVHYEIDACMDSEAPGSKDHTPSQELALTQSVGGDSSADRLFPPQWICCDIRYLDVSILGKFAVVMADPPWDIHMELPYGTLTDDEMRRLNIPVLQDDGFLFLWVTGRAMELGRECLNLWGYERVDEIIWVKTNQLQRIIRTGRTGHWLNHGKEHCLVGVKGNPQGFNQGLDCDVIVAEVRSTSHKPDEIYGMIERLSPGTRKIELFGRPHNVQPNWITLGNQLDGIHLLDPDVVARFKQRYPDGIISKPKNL
METTL3/METTL14, sequence (Q9HCE5 whole entry partner, species assumed): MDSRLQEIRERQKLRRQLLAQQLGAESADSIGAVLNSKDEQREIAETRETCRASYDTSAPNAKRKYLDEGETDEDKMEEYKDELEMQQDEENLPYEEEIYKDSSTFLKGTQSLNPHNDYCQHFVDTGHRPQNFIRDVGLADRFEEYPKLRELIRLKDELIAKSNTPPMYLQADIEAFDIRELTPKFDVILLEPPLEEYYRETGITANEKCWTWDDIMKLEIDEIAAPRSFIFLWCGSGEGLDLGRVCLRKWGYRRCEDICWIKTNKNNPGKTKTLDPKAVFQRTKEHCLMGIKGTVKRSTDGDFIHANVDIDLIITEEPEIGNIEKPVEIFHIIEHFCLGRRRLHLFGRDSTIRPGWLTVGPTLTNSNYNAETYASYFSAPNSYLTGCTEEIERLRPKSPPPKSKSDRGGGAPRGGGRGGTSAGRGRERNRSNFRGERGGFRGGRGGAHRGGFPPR
PRMT5-MEP50, sequence (O14744 whole entry): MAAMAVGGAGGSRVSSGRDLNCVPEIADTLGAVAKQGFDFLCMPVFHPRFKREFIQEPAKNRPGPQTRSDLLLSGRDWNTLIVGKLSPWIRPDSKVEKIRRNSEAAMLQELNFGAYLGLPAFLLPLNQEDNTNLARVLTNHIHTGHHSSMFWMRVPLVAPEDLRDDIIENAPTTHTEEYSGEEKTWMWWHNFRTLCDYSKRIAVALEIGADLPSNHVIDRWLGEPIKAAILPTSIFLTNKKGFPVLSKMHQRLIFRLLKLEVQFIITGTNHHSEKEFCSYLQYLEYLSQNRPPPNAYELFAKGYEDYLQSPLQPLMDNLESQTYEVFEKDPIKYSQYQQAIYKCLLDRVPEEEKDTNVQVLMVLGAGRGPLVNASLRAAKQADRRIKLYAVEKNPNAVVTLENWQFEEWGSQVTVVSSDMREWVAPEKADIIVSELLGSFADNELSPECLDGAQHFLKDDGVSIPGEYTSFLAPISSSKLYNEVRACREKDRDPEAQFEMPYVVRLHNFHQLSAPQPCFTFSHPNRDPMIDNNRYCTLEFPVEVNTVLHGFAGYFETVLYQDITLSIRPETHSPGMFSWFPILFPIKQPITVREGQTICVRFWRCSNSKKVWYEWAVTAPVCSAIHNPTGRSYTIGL
PRMT5-MEP50, sequence (Q9BQA1 whole entry partner): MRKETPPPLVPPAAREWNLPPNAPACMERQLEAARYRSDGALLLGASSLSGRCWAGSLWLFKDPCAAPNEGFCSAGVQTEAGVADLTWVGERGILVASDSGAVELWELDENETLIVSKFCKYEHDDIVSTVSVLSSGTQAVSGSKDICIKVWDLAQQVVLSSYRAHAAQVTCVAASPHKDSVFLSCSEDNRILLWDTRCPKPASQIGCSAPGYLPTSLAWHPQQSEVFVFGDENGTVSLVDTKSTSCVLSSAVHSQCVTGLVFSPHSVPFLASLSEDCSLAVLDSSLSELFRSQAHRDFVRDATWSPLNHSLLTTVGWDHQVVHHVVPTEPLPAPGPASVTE

One test has as its target PRMT5-MEP50 (Homo sapiens, UniProt O14744). As to the kind of experiment: PRMT5 assay (3H-SAM flashplate). The settings on record: Table 4; PRMT5 biochemical assay. The protocol:
Assays were performed in a 25 μl-volume in 384-well V-bottom polypropylene microplates (Greiner Bio-One, cat. No. 781280) at ambient temperature. Optimized 1× assay buffer was 20 mM Tris-HCl pH 8.0, 1 mM DTT, […]. For compound screening PRMT5-MEP50 (final concentration, f.c.=2.5 nM) was added using a Multidrop Combi (ThermoFisher Scientific, Waltham, MA) and preincubated for 5 min. Reactions were started by adding 3′ biotinylated histone H4 peptide acetylated on serine 1 (Ac-[…]-Biotin) (f.c.=100 nM) and 3H-SAM (f.c.=250 nM) substrates. Reactions proceeded for 60 minutes and were quenched with excess non-radioactive SAM (f.c.=15 μM). The reactions were then transferred to streptavidin-coated flashplates and incubated for 2 hours at 25° C. Following two washing cycles with 0.1% Tween-20, the plates were sealed and read on a TopCount (PerkinElmer, Waltham, MA) plate-based scintillation counter. For determination of kinetic parameters, reaction times were optimized so that measurements were taken during the initial velocity phase of the reaction.
In general, IC50 refers to the point on the concentration scale where inhibition reaches its midpoint. In the case of `Cn1ccc(-c2cn([C@@H]3O[C@H](C(=O)NC4CCN5CCCC5C4)[C@@H](O)[C@H]3O)c3ncnc(N)c23)n1` (stereo partly drawn) [Compound I-206], the IC50 fell in the range of 0.1 to 1 µM. Regarding `Cn1ccc(-c2cn([C@@H]3O[C@H](C(=O)NC4CCC4)[C@@H](O)[C@H]3O)c3ncnc(N)c23)n1` [Compound I-218], the IC50 was at least 1 µM. Same read-out and setting: to `CC(=O)NCCCN(C(=O)[C@H]1O[C@@H](n2cc(-c3ccn(C)n3)c3c(N)ncnc32)[C@H](O)[C@@H]1O)C1CCN(C)CC1` [Compound I-235] belongs 0.1 to 1 µM.

Another test addresses METTL3/METTL14 (Homo sapiens, UniProt Q86U44). Put plainly: METTL3-14 standard enzyme assay (3H-SAM flashplate). The settings on record: Table 3; METTL3 biochemical assay. As for the experimental part: METTL3-14 Standard Enzyme Assay
Assays were performed in a 25 μl-volume in 384-well V-bottom polypropylene microplates (Greiner Bio-One, cat. No. 781280) at ambient temperature. Optimized 1× assay buffer was 20 mM HEPES pH 7.5, 50 mM KCl, 250 μM MgCl2, 1 mM DTT, 0.01% Tween, 0.01% BSG, 0.004 U/μl RNAseOUT (cat. No. 10777019, ThermoFisher Scientific, Waltham, MA). For compound screening METTL3/METTL14 (final concentration, f.c.=2.5 nM) was added using a Multidrop Combi (ThermoFisher Scientific, Waltham, MA) and preincubated for 5 min. Reactions were started by adding 3′ biotinylated RNA (UCUGGACUAAA-biotin) (f.c.=100 nM) and 3H-SAM (f.c.=100 nM) substrates. Reactions proceeded for 30 minutes and were quenched with excess non-radioactive SAM (f.c.=15 μM). The reactions were then transferred to streptavidin-coated flashplates and incubated for 2 hours at 25° C. Following two washing cycles with 0.1% Tween-20, the plates were sealed and read on a TopCount (PerkinElmer, Waltham, MA) plate-based scintillation counter. For determination of kinetic parameters, reaction times were optimized so that measurements were taken during the initial velocity phase of the reaction.
Take `Nc1ncnc2c1c(-n1cccn1)cn2[C@@H]1C[C@H](C(=O)Nc2ccc3ccc(N4CCC4)nc3c2)[C@@H](O)C1` [Compound I-14]: the IC50 was in the range of 0.01 to 0.1 µM.

The same test, now with this note: Table 4; METTL3 biochemical assay.
Molecule `Cn1ccc(-c2cn([C@@H]3O[C@H](C(=O)NC4CCN5CCCC5C4)[C@@H](O)[C@H]3O)c3ncnc(N)c23)n1` (stereo partly drawn) [Compound I-206] registered an IC50 of 0.1 to 1 µM. As for `Cn1ccc(-c2cn([C@@H]3O[C@H](C(=O)NC4CCC4)[C@@H](O)[C@H]3O)c3ncnc(N)c23)n1` [Compound I-218], the IC50 was in the range of 0.1 to 1 µM.

`CC(=O)NCCCN(C(=O)[C@H]1O[C@@H](n2cc(-c3ccn(C)n3)c3c(N)ncnc32)[C@H](O)[C@@H]1O)C1CCN(C)CC1` [Compound I-235] displayed an IC50 of at least 1 µM. Same read-out and setting: the figure for `Cn1ccc(-c2cn([C@@H]3O[C@H](C(=O)Nc4ccc(OCCN5CCOCC5)cc4)[C@@H](O)[C@H]3O)c3ncnc(N)c23)n1` [Compound I-139] is 0.1 to 1 µM. Still for that read-out and setting: to `Cn1ccc(-c2cn([C@@H]3O[C@H](C(=O)NCCCn4ccnc4)[C@@H](O)[C@H]3O)c3ncnc(N)c23)n1` [Compound I-102] belongs 0.1 to 1 µM; to `Cn1ccc(-c2cn([C@@H]3O[C@H](C(=O)Nc4ccnn4C)[C@@H](O)[C@H]3O)c3ncnc(N)c23)n1` [Compound I-109], 0.1 to 1 µM; to `Cn1ccc(-c2cn([C@@H]3O[C@H](C(=O)NCc4ccccc4-n4cccn4)[C@@H](O)[C@H]3O)c3ncnc(N)c23)n1` [Compound I-121], 0.1 to 1 µM. Still for that read-out and setting: to `Cn1ccc(-c2cn([C@@H]3O[C@H](C(=O)Nc4ccc5c(c4)NC(=O)CC5)[C@@H](O)[C@H]3O)c3ncnc(N)c23)n1` [Compound I-123] belongs 0.1 to 1 µM.

For `Cn1ccc(-c2cn([C@@H]3O[C@H](C(=O)NCC4CCOC4)[C@@H](O)[C@H]3O)c3ncnc(N)c23)n1` (stereo partly drawn) [Compound I-89], the IC50 was at least 1 µM. Still for that read-out and setting: to `Cc1nc2cc(NC(=O)[C@H]3O[C@@H](n4cc(-c5ccn(C)n5)c5c(N)ncnc54)[C@H](O)[C@@H]3O)ccc2o1` [Compound I-141] belongs 0.01 to 0.1 µM; to `Cn1ccc(-c2cn([C@@H]3O[C@H](C(=O)Nc4ccc(S(=O)(=O)N5CCOCC5)cc4)[C@@H](O)[C@H]3O)c3ncnc(N)c23)n1` [Compound I-107], 0.1 to 1 µM. Same read-out and setting: the figure for `Cn1ccc(-c2cn([C@@H]3O[C@H](C(=O)Nc4ccc5ccccc5n4)[C@@H](O)[C@H]3O)c3ncnc(N)c23)n1` [Compound I-66] is at least 1 µM; for `Cn1ccc(-c2cn([C@@H]3O[C@H](C(=O)NCc4ccc5ccccc5c4)[C@@H](O)[C@H]3O)c3ncnc(N)c23)n1` [Compound I-131] it is 0.1 to 1 µM.

On to `Cn1ccc(-c2cn([C@@H]3O[C@H](C(=O)NCCN4CCOCC4)[C@@H](O)[C@H]3O)c3ncnc(N)c23)n1` [Compound I-65], for which the IC50 was at least 1 µM.

`Cc1cc(CNC(=O)[C@H]2O[C@@H](n3cc(-c4ccn(C)n4)c4c(N)ncnc43)[C@H](O)[C@@H]2O)ccc1F` [Compound I-77] showed an IC50 of at least 1 µM. `Cc1ccc(C(N)=O)cc1NC(=O)[C@H]1O[C@@H](n2cc(-c3ccn(C)n3)c3c(N)ncnc32)[C@H](O)[C@@H]1O` [Compound I-92]: the IC50 is at least 1 µM. For `Cn1ccc(-c2cn([C@@H]3O[C@H](C(=O)Nc4cccc5nsnc45)[C@@H](O)[C@H]3O)c3ncnc(N)c23)n1` [Compound I-118], the IC50 fell in the range of 0.1 to 1 µM. Still for that read-out and setting: to `Cn1ccc(-c2cn([C@@H]3O[C@H](C(=O)NC4CCC(O)CC4)[C@@H](O)[C@H]3O)c3ncnc(N)c23)n1` (stereo partly drawn) [Compound I-103] belongs 0.1 to 1 µM; to `Cn1ccc(-c2cn([C@@H]3O[C@H](C(=O)Nc4ccc5ccccc5c4)[C@@H](O)[C@H]3O)c3ncnc(N)c23)n1` [Compound I-114], 0.1 to 1 µM. Same read-out and setting: to `Cn1ccc(-c2cn([C@@H]3O[C@H](C(=O)Nc4ccncc4Cl)[C@@H](O)[C@H]3O)c3ncnc(N)c23)n1` [Compound I-122] belongs 0.1 to 1 µM; to `Cn1ccc(-c2cn([C@@H]3O[C@H](C(=O)NCCN4CCNC4=O)[C@@H](O)[C@H]3O)c3ncnc(N)c23)n1` [Compound I-64], at least 1 µM; to `Cn1ccc(-c2cn([C@@H]3O[C@H](C(=O)Nc4ccc(-c5ccccc5)cc4)[C@@H](O)[C@H]3O)c3ncnc(N)c23)n1` [Compound I-98], 0.1 to 1 µM. `Cn1ccc(-c2cn([C@@H]3O[C@H](C(=O)NCCc4ccc(C(F)(F)F)cc4)[C@@H](O)[C@H]3O)c3ncnc(N)c23)n1` [Compound I-108] returned an IC50 of 0.1 to 1 µM. Take `CC(CNC(=O)[C@H]1O[C@@H](n2cc(-c3ccn(C)n3)c3c(N)ncnc32)[C@H](O)[C@@H]1O)c1ccccc1` (stereo partly drawn) [Compound I-101]: the IC50 is 0.1 to 1 µM. Still for that read-out and setting: the figure for `Cn1ccc(-c2cn([C@@H]3O[C@H](C(=O)Nc4ccc5nsnc5c4)[C@@H](O)[C@H]3O)c3ncnc(N)c23)n1` [Compound I-94] is 0.1 to 1 µM; for `Cn1ccc(-c2cn([C@@H]3O[C@H](C(=O)Nc4cccc5cnccc45)[C@@H](O)[C@H]3O)c3ncnc(N)c23)n1` [Compound I-69] it is at least 1 µM; for `COCC(C)NC(=O)[C@H]1O[C@@H](n2cc(-c3ccn(C)n3)c3c(N)ncnc32)[C@H](O)[C@@H]1O` (stereo partly drawn) [Compound I-80] it is at least 1 µM. Take `CC(O)CNC(=O)[C@H]1O[C@@H](n2cc(-c3ccn(C)n3)c3c(N)ncnc32)[C@H](O)[C@@H]1O` (stereo partly drawn) [Compound I-81]: the concentration for half-maximal inhibition (IC50) was at least 1 µM.

With `Cn1ccc(-c2cn([C@@H]3O[C@H](C(=O)Nc4cc(Cl)cc(Cl)c4)[C@@H](O)[C@H]3O)c3ncnc(N)c23)n1` [Compound I-67], the IC50 was at least 1 µM.

As for `CC(C)c1nnc(NC(=O)[C@H]2O[C@@H](n3cc(-c4ccn(C)n4)c4c(N)ncnc43)[C@H](O)[C@@H]2O)s1` [Compound I-70], the IC50 was at least 1 µM. Same read-out and setting: to `Cn1ccc(-c2cn([C@@H]3O[C@H](C(=O)N4CCc5ccccc54)[C@@H](O)[C@H]3O)c3ncnc(N)c23)n1` [Compound I-99] belongs 0.1 to 1 µM; to `Cn1ccc(-c2cn([C@@H]3O[C@H](C(=O)NCCc4ccc5ccccc5c4)[C@@H](O)[C@H]3O)c3ncnc(N)c23)n1` [Compound I-134], 0.1 to 1 µM. On the same count and under the same terms, the figure for `Cc1ccc2nc(NC(=O)[C@H]3O[C@@H](n4cc(-c5ccn(C)n5)c5c(N)ncnc54)[C@H](O)[C@@H]3O)sc2c1` [Compound I-68] is at least 1 µM. As to `Cn1ccc(-c2cn([C@@H]3O[C@H](C(=O)NC(Cc4ccccc4)c4ccccc4)[C@@H](O)[C@H]3O)c3ncnc(N)c23)n1` (stereo partly drawn) [Compound I-115], the IC50 is 0.1 to 1 µM. In turn, `Cc1cc(CNC(=O)[C@H]2O[C@@H](n3cc(-c4ccn(C)n4)c4c(N)ncnc43)[C@H](O)[C@@H]2O)no1` [Compound I-106] came in with an IC50 of 0.1 to 1 µM. Same read-out and setting: the figure for `Cn1ccc(-c2cn([C@@H]3O[C@H](C(=O)NCCCN4CCCC4=O)[C@@H](O)[C@H]3O)c3ncnc(N)c23)n1` [Compound I-129] is 0.1 to 1 µM; for `Cn1ccc(-c2cn([C@@H]3O[C@H](C(=O)N[C@@H](CO)c4ccccc4)[C@@H](O)[C@H]3O)c3ncnc(N)c23)n1` [Compound I-88] it is at least 1 µM. In turn, `CCCCc1ccc(NC(=O)[C@H]2O[C@@H](n3cc(-c4ccn(C)n4)c4c(N)ncnc43)[C@H](O)[C@@H]2O)cc1` [Compound I-110] yielded an IC50 of 0.1 to 1 µM. The same measure, in the same setting: to `Cn1ccc(-c2cn([C@@H]3O[C@H](C(=O)N[C@H](CO)c4ccccc4)[C@@H](O)[C@H]3O)c3ncnc(N)c23)n1` [Compound I-87] belongs at least 1 µM; to `Cc1noc(NC(=O)[C@H]2O[C@@H](n3cc(-c4ccn(C)n4)c4c(N)ncnc43)[C@H](O)[C@@H]2O)c1C` [Compound I-75], at least 1 µM; to `Cn1ccc(-c2cn([C@@H]3O[C@H](C(=O)Nc4ccc(CN5CCS(=O)(=O)CC5)cc4)[C@@H](O)[C@H]3O)c3ncnc(N)c23)n1` [Compound I-125], 0.1 to 1 µM. The same measure, in the same setting: to `Cn1ccc(-c2cn([C@@H]3O[C@H](C(=O)NCCc4ccccc4Cl)[C@@H](O)[C@H]3O)c3ncnc(N)c23)n1` [Compound I-133] belongs 0.1 to 1 µM; to `Cn1ccc(-c2cn([C@@H]3O[C@H](C(=O)Nc4cccc(N5CCOCC5)c4)[C@@H](O)[C@H]3O)c3ncnc(N)c23)n1` [Compound I-74], at least 1 µM; to `Cn1ccc(-c2cn([C@@H]3O[C@H](C(=O)Nc4nccs4)[C@@H](O)[C@H]3O)c3ncnc(N)c23)n1` [Compound I-82], at least 1 µM.
